According to article PMC4522710, “A putative ATPase mediates RNA transcription and capping in a dsRNA virus” (eLife, 2015):

Biological target: T1, CPV turret protein (TP) (Bombyx mori cypovirus 1, UniProt Q914N6)
T1 construct: native full-length protein in intact virions purified from polyhedra; GTase, bridge, MT-1 and MT-2 domains; pentameric turret
Test: cryoEM structure of virion complex
Assay type: binding
Conditions: 10 mM MgCl2, pH 8.0, 31 °C

For `Nc1nc2c(ncn2[C@@H]2O[C@H](COP(=O)(O)OP(=O)(O)OP(=O)(O)O)[C@@H](O)[C@H]2O)c(=O)[nH]1` [GTP], which “cryoEM structure of virion complex” value (2 mM GTP, GTase site (all four structures), also putative ATPase site with SAM without ATP (3JB2)) is on record?
Its value is “In G-CPV, one GTP binds to the GTase site of GTase domain”.

How did the “cryoEM structure of virion complex” value (1 mM SAM, MT-2 site (SAM alone, 3JB1), MT-1 and MT-2 sites with ATP and/or GTP present (3JAY, 3JB2, 3JB3)) turn out when `C[S+](CC[C@H](N)C(=O)O)C[C@H]1O[C@@H](n2cnc3c(N)ncnc32)[C@H](O)[C@@H]1O` (some centres unmarked) [SAM] was run?
Its value is “In S-CPV, one SAM binds to the MT-2 domain of each TP”.
